Key:
[1] = tested on: lymphocytes from naive SJL mice; experiment: ConA- and LPS-induced proliferation of lymphocytes from naive SJL mice in vitro (3H-thymidine); format: cell-based; conditions: Mus musculus, Lymphocyte, 48 h stimulation
[2] = tested on: splenocytes from ICR mice; format: cell-based, mouse; conditions: 10 and 50 μM FTS
Method: An examination was made as to whether the effect of FTS on Ras levels was of functional importance in splenocytes prepared from 2 ICR mice. Stimulation of ^3H-thymidine incorporation into DNA was used as measure of splenocyte proliferation in the presence of lipopolysaccharide (LPS) or concanavalin A (ConA), and in the presence of 0, 10 and 50 μM FTS. The methods used are detailed below. […] Also, FTS had no effect on basal ^3H-thymidine incorporation into DNA. The concentrations of FTS at which inhibition of lymphocyte cell growth were observed reflect expected levels of the drug when given in animals at doses of 5-10 mg/kg.
Mice were killed by cervical dislocation and spleens removed with sterile precautions and placed in disposable plastic Petri dishes containing Dulbecco's phosphate-buffered saline (DPBS). […] Cells from each microculture were harvested on fibroglass filters with multiharvester and counted in liquid scintillation β counter.
Mitogens and antigens were diluted to appropriate concentrations in the incubation medium and added to the wells at the beginning of incubation period to give a final concentration of 1.0 μg/ml lipopolysaccharide (LPS), 1.0 μg/ml Concanavalin A (ConA) or 10 μg/ml beta2-Glycoprotein I (beta2-GPI). Spontaneous proliferation (without mitogen or antigen) was also assessed. […]
The results are expressed as the mean value of stimulation index per group. […]

EAN in Lewis rats = experiment: Experimental autoimmune neuritis (EAN) in Lewis rats, clinical score and rotarod; format: in vivo, rat
human HSC [3] = experiment: PDGF-stimulated DNA synthesis ([3H]TdR) in human hepatic stellate cells; format: cell-based; conditions: PDGF-BB 10 ng/ml; 24 h FTS
Method: (§1) Human HSCs were isolated from wedge sections of normal human liver unsuitable for transplantation as previously reported (6, 7). Briefly, after a combined digestion with collagenase/pronase, HSCs were separated from other liver nonparenchymal cells by ultracentrifugation over gradients of stractan (Cellsep™ isotonic solution, Larex Inc., St. Paul, Minn.). Extensive characterization was performed as described in (7). Cells were cultured on plastic culture dishes (Falcon, Becton Dickinson, Lincoln Park, N.J.) in Iscove's modified Dulbecco's medium supplemented with 0.6 U/ml insulin, 2.0 mmol/L glutamine, 0.1 mmol/L nonessential amino acids, 1.0 mmol/L sodium pyruvate, antibiotic antifungal solution (all provided by Gibco Laboratories, Grand Island, N.Y.) and 20% fetal bovine serum (Imperial Laboratories, Andover, U.K.). Experiments described in this study were performed on cells between third and fifth serial passages (1:3 split ratio) using three independent cell lines.
DNA synthesis was measured as the amount of [Methyl-^3H]thymidine ([^3 H]TdR) incorporated into trichloroacetic acid-precipitable material. […] At the end of the pulsing period, [^3H]TdR incorporation into cellular DNA was measured as previously reported (8). Cell number was determined in three separate wells from each dish and results were expressed as cpm/10^5 cells.

human HSC [4] = experiment: PDGF-induced migration of human hepatic stellate cells (modified Boyden chamber); format: cell-based; conditions: PDGF-BB 10 ng/ml, 24 h FTS, read-out: FTS concentration inhibiting (50%) the PDGF-stimulated cell migration
Method: as §1
Cell migration was carried out as previously described (9, 10). […] After fixing in 96% methanol and staining with Harris' hematoxylin solution, cells that migrated to the underside of the filters were quantitated as the mean number of cells in 10 high-power fields (HPF). […] Possible cytotoxic effects were monitored by the trypan blue exclusion test.

[5] = FTS 5 mg/kg/day i.p. days 0-10 only

**Q.** `CC(C)=CCC/C(C)=C/CC/C(C)=C/CSc1ccccc1C(=O)O` [FTS, farnesyl thiosalicylic acid] was tested. Which inhibition at 12.5 µM ([1]; 12.5 μM FTS) did it give?
**A.** 22 to 50%

**Q.** And the inhibition at 25 µM ([1]; 25 μM FTS)?
**A.** 66 to 71%

**Q.** What about the inhibition at 50 µM ([1]; 50 μM FTS) of the same compound?
**A.** 95 to 98%

**Q.** And the “LPS and ConA induced splenocyte proliferation (stimulation index)” value [2]?
**A.** significant reduction

**Q.** What about the “basal 3H-thymidine incorporation into DNA” value [2] of the same compound?
**A.** no effect

**Q.** What about the recovery (EAN in Lewis rats; [5]) of the same compound?
**A.** recovered faster than the other groups

**Q.** And the severity of disease (EAN in Lewis rats; [5])?
**A.** equal severity to controls

**Q.** And the “clinical score / rotarod, peak of disease” value (EAN in Lewis rats; FTS 5 mg/kg/day i.p. days 0-28)?
**A.** significantly ameliorated the peak of disease

**Q.** What about the “rats with brief relapses of clinical signs during recovery” value (EAN in Lewis rats; FTS days 0-10 only) of the same compound?
**A.** Three of the 5 rats

**Q.** What about the recovery (EAN in Lewis rats; treatment from day 10) of the same compound?
**A.** recovered significantly faster

**Q.** What about the “Mean clinical scores for days 15-19” value (EAN in Lewis rats; treatment from day 10, ±SE, n=10, control 4.12±0.61) of the same compound?
**A.** 2.74±0.66

**Q.** And the “FTS concentration affecting PDGF-stimulated 3H-thymidine incorporation into DNA” value (human HSC [3])?
**A.** 25 to 50 µM

**Q.** And the IC50 (human HSC [4])?
**A.** 2000 to 2500 nM
